According to PubChem BioAssay AID330 (DTP/NCI, 2004):
“And” between values parts separate entries of the source, which are not always exact repeats. Identical values can stand only once. Toxic doses and inconclusive results are not listed.

System: P388 leukemia ip, CD2F1 mice, survival T/C
Assay: NCI In Vivo Anticancer Drug Screen. Data for tumor model P388 Leukemia (intraperitoneal) in CD2F1 (CDF1) mice
Conditions: endpoint: median survival time, higher = longer survival
Method in brief: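 Mice carrying the transplanted tumor received test compound or vehicle. Survival was recorded in each group, and the value is the treated-group measurement divided by that of the vehicle-treated control group.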

[1] = dose: 60.0 mg/kg/injection, schedule: Q01DX005 (ip), vehicle: saline with Tween-80
[2] = dose: 120.0 mg/kg/injection, schedule: Q01DX005 (ip), vehicle: saline with Tween-80
[3] = dose: 240.0 mg/kg/injection, schedule: Q01DX005 (ip), vehicle: saline with Tween-80
[4] = dose: 50.0 mg/kg/injection, schedule: Q01DX005 (ip), vehicle: saline with Tween-80
[5] = dose: 100.0 mg/kg/injection, schedule: Q01DX005 (ip), vehicle: saline with Tween-80
[6] = dose: 100.0 mg/kg/injection, schedule: Q01DX001 (ip), vehicle: Klucel (hydroxypropylcellulose) (HPC)
[7] = dose: 200.0 mg/kg/injection, schedule: Q01DX001 (ip), vehicle: Klucel (hydroxypropylcellulose) (HPC)
[8] = dose: 50.0 mg/kg/injection, schedule: Q01DX009 (ip), vehicle: saline with Tween-80
[9] = dose: 100.0 mg/kg/injection, schedule: Q01DX009 (ip), vehicle: saline with Tween-80
[10] = dose: 200.0 mg/kg/injection, schedule: Q01DX009 (ip), vehicle: saline with Tween-80
[11] = dose: 50.0 mg/kg/injection, schedule: Q01DX009 (ip), vehicle: saline
[12] = dose: 100.0 mg/kg/injection, schedule: Q01DX009 (ip), vehicle: saline
[13] = dose: 200.0 mg/kg/injection, schedule: Q01DX009 (ip), vehicle: saline
[14] = dose: 50.0 mg/kg/injection, schedule: Q01DX005 (ip), vehicle: Klucel (hydroxypropylcellulose) (HPC)
[15] = dose: 100.0 mg/kg/injection, schedule: Q01DX005 (ip), vehicle: Klucel (hydroxypropylcellulose) (HPC)
[16] = dose: 200.0 mg/kg/injection, schedule: Q01DX005 (ip), vehicle: Klucel (hydroxypropylcellulose) (HPC)
[17] = dose: 25.0 mg/kg/injection, schedule: Q01DX009 (ip), vehicle: Klucel (hydroxypropylcellulose) (HPC)
[18] = dose: 50.0 mg/kg/injection, schedule: Q01DX009 (ip), vehicle: Klucel (hydroxypropylcellulose) (HPC)
[19] = dose: 12.5 mg/kg/injection, schedule: Q01DX009 (ip), vehicle: Klucel (hydroxypropylcellulose) (HPC)

In the case of `Oc1ccc(C/C=C/c2ccccc2)cc1O`, the T/C (dose: 2.5 mg/kg/injection, schedule: Q01DX009 (ip), vehicle: saline + alcohol) is reported as 104 % of control, the T/C (dose: 5.0 mg/kg/injection, schedule: Q01DX009 (ip), vehicle: saline + alcohol) is reported as 104 % of control and the T/C (dose: 10.0 mg/kg/injection, schedule: Q01DX009 (ip), vehicle: saline + alcohol) is reported as 101 % of control.
`O=C(CCCl)Nc1cc2ccccc2oc1=O` was tested, and the T/C [1] was 91 % of control, the T/C [2] was 92 % of control and the T/C [3] was 89 % of control.
In the case of `Cc1c([N+](=O)[O-])c(=O)oc2ccc3c(=O)ccoc3c12`, the T/C [4] is reported as 98 % of control, the T/C [5] is reported as 96 % of control and the T/C (dose: 200.0 mg/kg/injection, schedule: Q01DX005 (ip), vehicle: saline with Tween-80) is reported as 99 % of control.
In the case of `CN(C)c1ccc(C2=CC(c3ccc(N(C)C)cc3)(c3ccc(C(F)(F)F)cc3)C=C(c3ccc(N(C)C)cc3)S2)cc1`, the T/C [6] is reported as 101 % of control and the T/C [7] is reported as 92 % of control.
With `CCOC(=O)C=C1CCC2(CC1)SCCS2` the T/C (dose: 100.0 mg/kg/injection, schedule: Q01DX001 (ip), vehicle: other) was 104 % of control, the T/C (dose: 200.0 mg/kg/injection, schedule: Q01DX001 (ip), vehicle: other) was 114 % of control and the T/C (dose: 400.0 mg/kg/injection, schedule: Q01DX001 (ip), vehicle: other) was 117 % of control.
`CC(=O)CCC1C=CC(=O)O1` (stereo not drawn) was tested, and the T/C (dose: 60.0 mg/kg/injection, schedule: Q01DX005 (ip), vehicle: saline) was 112 % of control, the T/C (dose: 120.0 mg/kg/injection, schedule: Q01DX005 (ip), vehicle: saline) was 103 % of control and the T/C (dose: 240.0 mg/kg/injection, schedule: Q01DX005 (ip), vehicle: saline) was 111 % of control.
With `CC(C)(C)C(Br)C(=O)NN=C(c1ccccc1)c1ccccc1` (stereo not drawn) the T/C [8] was 106 % of control, the T/C [9] was 105 % of control and the T/C [10] was 99 % of control.
`CCOC(=O)C1=C(C)Nc2cc[nH]c(=O)c2C1c1ccccc1Cl` (stereo not drawn) was tested, and the T/C [1] was 107 % of control, the T/C [2] was 103 % of control and the T/C [3] was 104 % of control.
`NC(=O)CC(=O)O` was tested, and the T/C [11] was 96 % of control, the T/C [12] was 91 % of control and the T/C [13] was 104 % of control.
In the case of `Nc1nnc(Cc2ccc(Br)cc2)o1`, the T/C [1] is reported as 98 % of control, the T/C [2] is reported as 97 % of control and the T/C [3] is reported as 100 % of control.
With `CC1(C)NC(=O)N(CCCCCCN2C(=O)NC(C)(C)C2=O)C1=O` the T/C [14] was 94 % of control, the T/C [15] was 102 % of control and the T/C (dose: 400.0 mg/kg/injection, schedule: Q01DX005 (ip), vehicle: Klucel (hydroxypropylcellulose) (HPC)) was 90 % of control.
With `c1ccc(C2NCCc3ccccc32)cc1` (stereo not drawn) the T/C [14] was 97 % of control, the T/C [15] was 105 % of control and the T/C [16] was 100 % of control.
`CN(C)/C(=C(\CBr)C(=O)c1ccc(-c2ccccc2)cc1)c1ccccc1` was tested, and the T/C (dose: 12.5 mg/kg/injection, schedule: Q01DX005 (ip), vehicle: Klucel (hydroxypropylcellulose) (HPC)) was 108 % of control, the T/C (dose: 25.0 mg/kg/injection, schedule: Q01DX005 (ip), vehicle: Klucel (hydroxypropylcellulose) (HPC)) was 105 % of control and the T/C [14] was 105 % of control and 107 % of control.
In the case of `CCOC1=C(CC)C(=O)c2ccccc2C1=O`, the T/C [14] is reported as 100 % of control, the T/C [15] is reported as 100 % of control and the T/C [16] is reported as 107 % of control.
For `NC(=O)CCCCO`, the T/C (dose: 100.0 mg/kg/injection, schedule: Q04DX003 (ip), vehicle: saline) was 102 % of control, the T/C (dose: 200.0 mg/kg/injection, schedule: Q04DX003 (ip), vehicle: saline) was 102 % of control and the T/C (dose: 400.0 mg/kg/injection, schedule: Q04DX003 (ip), vehicle: saline) was 109 % of control.
In the case of `COC(=O)C12CC3(C)OC1(C)OC(=O)C2(Cc1ccccc1)N3C(C)=O` (stereo not drawn), the T/C [1] is reported as 104 % of control, the T/C [2] is reported as 104 % of control and the T/C [3] is reported as 97 % of control.
With `c1ccc2sc(N3CCCCC3)nc2c1` the T/C (dose: 25.0 mg/kg/injection, schedule: Q04DX003 (ip), vehicle: Klucel (hydroxypropylcellulose) (HPC)) was 105 % of control, the T/C [11] was 104 % of control and the T/C (dose: 50.0 mg/kg/injection, schedule: Q04DX003 (ip), vehicle: Klucel (hydroxypropylcellulose) (HPC)) was 99 % of control. For the same molecule, the T/C [12] was 104 % of control, the T/C (dose: 100.0 mg/kg/injection, schedule: Q04DX003 (ip), vehicle: Klucel (hydroxypropylcellulose) (HPC)) was 100 % of control and the T/C [13] was 103 % of control. The T/C (dose: 200.0 mg/kg/injection, schedule: Q04DX003 (ip), vehicle: Klucel (hydroxypropylcellulose) (HPC)) was 109 % of control.
With `CCOC(=O)c1c(C)cn[nH]c1=O` the T/C [8] was 96 % of control, the T/C [9] was 99 % of control and the T/C [10] was 95 % of control.
For `O=C(CNC(=O)Nc1cccc([N+](=O)[O-])c1)NNC(=O)Nc1ccc(Cl)c([N+](=O)[O-])c1`, the T/C [1] was 91 % of control, the T/C [2] was 91 % of control and the T/C [3] was 106 % of control.
In the case of `CC(C)CCCCCCCCCCCCC(=O)NCC(=O)NC1C(C)OC(Nc2ncnc3nc[nH]c23)C(O)C1O` (stereo not drawn), the T/C (dose: 0.13 mg/kg/injection, schedule: Q01DX009 (ip), vehicle: other) is reported as 114 % of control, the T/C (dose: 0.25 mg/kg/injection, schedule: Q01DX009 (ip), vehicle: other) is reported as 121 % of control and the T/C (dose: 0.5 mg/kg/injection, schedule: Q01DX009 (ip), vehicle: other) is reported as 123 % of control. For the same molecule, the T/C (dose: 1.0 mg/kg/injection, schedule: Q01DX009 (ip), vehicle: other) was 157 % of control and 163 % of control, the T/C (dose: 1.0 mg/kg/injection, schedule: Q01DX009 (oral), vehicle: distilled water + Tween-80) was 104 % of control and the T/C (dose: 2.0 mg/kg/injection, schedule: Q01DX009 (oral), vehicle: distilled water + Tween-80) was 102 % of control. The T/C (dose: 4.0 mg/kg/injection, schedule: Q01DX009 (ip), vehicle: other) was 97 % of control, the T/C (dose: 4.0 mg/kg/injection, schedule: Q01DX009 (oral), vehicle: distilled water + Tween-80) was 105 % of control and the T/C (dose: 8.0 mg/kg/injection, schedule: Q01DX009 (oral), vehicle: distilled water + Tween-80) was 103 % of control. For the same molecule, the T/C (dose: 16.0 mg/kg/injection, schedule: Q01DX009 (oral), vehicle: distilled water + Tween-80) was 104 % of control.
`CC(C)CCCCCc1ccc(OCCOc2ccc(C(=O)Nc3ccc(S(=O)(=O)F)cc3N)cc2)cc1` was tested, and the T/C (dose: 50.0 mg/kg/injection, schedule: Q04DX003 (ip), vehicle: saline sonified) was 100 % of control, the T/C (dose: 100.0 mg/kg/injection, schedule: Q04DX003 (ip), vehicle: saline sonified) was 100 % of control and the T/C (dose: 200.0 mg/kg/injection, schedule: Q04DX003 (ip), vehicle: saline sonified) was 90 % of control.
For `S=C(c1c(Cl)cccc1Cl)N1CN2CCCN(C2)C1`, the T/C [8] was 111 % of control, the T/C [9] was 98 % of control and the T/C [10] was 101 % of control.
In the case of `ClC1CCCCC1C(C1CCCCC1)C1CCCCC1` (stereo not drawn), the T/C [4] is reported as 98 % of control and the T/C [5] is reported as 100 % of control.
For `O=C(/C=C\c1cc2[nH]c1c(-c1ccccc1)c1nc(c(-c3ccccc3)c3ccc([nH]3)c(-c3ccccc3)c3nc(c2-c2ccccc2)C=C3)C=C1)NCCCn1ccnc1`, the T/C (dose: 50.0 mg/kg/injection, schedule: Q01DX001 (ip), vehicle: Klucel (hydroxypropylcellulose) (HPC)) was 100 % of control, the T/C [6] was 94 % of control and the T/C [7] was 93 % of control. The T/C (dose: 400.0 mg/kg/injection, schedule: Q01DX001 (ip), vehicle: Klucel (hydroxypropylcellulose) (HPC)) was 96 % of control.
With `CCCCC1C(=O)N2C=C(c3ccccc3)c3ccccc3N2C1=O` (stereo not drawn) the T/C [17] was 104 % of control, the T/C [18] was 111 % of control and the T/C (dose: 100.0 mg/kg/injection, schedule: Q01DX009 (ip), vehicle: Klucel (hydroxypropylcellulose) (HPC)) was 95 % of control. The T/C (dose: 200.0 mg/kg/injection, schedule: Q01DX009 (ip), vehicle: Klucel (hydroxypropylcellulose) (HPC)) was 105 % of control and the T/C (dose: 400.0 mg/kg/injection, schedule: Q01DX009 (ip), vehicle: Klucel (hydroxypropylcellulose) (HPC)) was 95 % of control.
For `CC1=CCCC1C1C=CCC1` (stereo not drawn) (tested in a mixture with another compound), the T/C (dose: 25.0 mg/kg/injection, schedule: Q01DX009 (ip), vehicle: saline with Tween-80) was 102 % of control, the T/C [8] was 103 % of control and 105 % of control and the T/C [9] was 116 % of control.
With `[I][Hg][CH]1CCC2CCCC1O2` (stereo not drawn) the T/C [19] was 105 % of control and the T/C [17] was 102 % of control.
In the case of `CS(=O)(=O)c1ccc(/C(=N/N)c2ccccc2)cc1`, the T/C [19] is reported as 103 % of control, the T/C [17] is reported as 102 % of control and the T/C [18] is reported as 101 % of control and 93 % of control.
For `C/C=C/C=C/C(=O)CCC1(C)OC(=O)C(C)=C1O` (stereo not drawn), the T/C [14] was 96 % of control, the T/C [15] was 113 % of control and the T/C [16] was 93 % of control.
